In patent EP4714938A1, “HDAC1/2 SELECTIVE INHIBITOR AND USE THEREOF” (Wigen Biomedicine Technology (Shanghai) Co., Ltd., priority 2023, dated 2024):
Like-named read-outs stand apart in the source and are kept apart here.

Assays:
[1] = biological target: HDAC2 (Homo sapiens, UniProt Q92769); test: HDAC enzyme inhibitory activity, FRET method; type: biochemical; conditions: read-out: IC50 HDAC2
Method: (§3) The compounds of the present disclosure were assayed for enzyme inhibitory activity against various subtypes of HDAC enzymes by the FRET method. The various subtypes of HDAC enzymes were obtained either through purification or direct purchase of assay kits.
(§4) The specific method was as follows: The enzyme was added to a 384-well plate, and a reaction buffer was added to the control well. Serially diluted DMSO sample solutions were added to the reaction wells, and the plate was incubated at room temperature for 15 min. Then a chromogenic agent was added to stop the reaction, and fluorescence was generated. The fluorescence intensity was measured using an EnVision multi-label microplate reader (excitation: 355 nm, emission: 460 nm). The endpoint value was read after the color development reached stability. The inhibition IC50 of the compounds was calculated using GraphPad Prism4 software relative to DMSO.

[2] = biological target: HDAC1 (Homo sapiens, UniProt Q13547); test: HDAC enzyme inhibitory activity, FRET method; type: biochemical; conditions: read-out: IC50 HDAC1
[3] = tested on: Acetyl lysine; test: Intracellular acetyl lysine level by ELISA in HeLa cells; type: cell-based; conditions: 24 h of treatment
Method: (§1) HeLa cells were seeded into a 96-well plate at 20000 cells/well. After overnight adherence culture, the serially diluted compound was added. After 24 h of treatment, intracellular levels of acetyl lysine and H3K 27 acetyl lysine were quantified by ELISA. Table 8. Effect of compound of the present disclosure on levels of acetyl lysine and H3K 27 acetyl lysine

[4] = biological target: HDAC3 (Homo sapiens, UniProt O15379); test: HDAC enzyme inhibitory activity, FRET method; type: biochemical; conditions: read-out: IC50 HDAC3
Method: as §3, §4

[5] = tested on: Jurkat cell; test: Inhibition of cell proliferation (CTG, intracellular ATP); type: cell-based; conditions: Homo sapiens, Jurkat, 72 h
Method: (§2) Jurkat or 293T cells were seeded into a 96-well plate at 3000 cells/well. After overnight adherence culture, the serially diluted compound in DMSO was added. After 72 h, the intracellular ATP level was determined by CTG. The IC50 for the inhibition of cell proliferation by the compounds was calculated compared to the DMSO group. Table 7. Inhibitory activity of compounds of the present disclosure against Jurkat/293T cell proliferation (IC50, µM)

[6] = tested on: 293T cell; test: as above; type: cell-based; conditions: Homo sapiens, HEK-293T, 72 h
Method: as §2

[7] = tested on: H3K 27 Acetyl lysine; test: Intracellular H3K 27 acetyl lysine level by ELISA in HeLa cells; type: cell-based; conditions: 24 h of treatment
Method: as §1

[8] = Stability in liver microsomes; type: in vitro ADME; conditions: for half-life at 1 µM: 1 µM compound, 37 °C, NADPH regeneration system
Method: After the 1 µM compound was individually incubated at 37 °C for various durations with […] liver microsomes from humans, monkeys, beagles, rats, or mice in the presence of an NADPH regeneration system, LC-MS-MS was used to analyze the remaining amount of the compound, and T1/2 was calculated. Table 10. Evaluation results of stability of compounds of the present disclosure in human and mouse liver microsomes

Sequence of HDAC3 (O15379 whole entry, species assumed): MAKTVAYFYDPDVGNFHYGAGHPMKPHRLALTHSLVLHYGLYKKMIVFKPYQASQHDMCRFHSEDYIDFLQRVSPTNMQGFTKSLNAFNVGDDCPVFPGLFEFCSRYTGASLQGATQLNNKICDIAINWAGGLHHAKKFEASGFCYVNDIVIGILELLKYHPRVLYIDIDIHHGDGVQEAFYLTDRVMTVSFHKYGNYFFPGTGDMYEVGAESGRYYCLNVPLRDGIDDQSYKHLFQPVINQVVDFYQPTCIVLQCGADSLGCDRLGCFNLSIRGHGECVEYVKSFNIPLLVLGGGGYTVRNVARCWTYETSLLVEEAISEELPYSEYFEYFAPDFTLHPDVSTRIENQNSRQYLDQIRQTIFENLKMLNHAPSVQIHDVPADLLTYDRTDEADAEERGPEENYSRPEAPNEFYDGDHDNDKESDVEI
Sequence of HDAC3 (Q9Y618 395-489 partner limits assumed, species assumed): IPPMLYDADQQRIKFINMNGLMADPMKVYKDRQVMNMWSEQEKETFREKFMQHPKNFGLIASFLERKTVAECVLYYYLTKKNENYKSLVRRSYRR
Sequence of HDAC2 (Q92769 whole entry, species assumed): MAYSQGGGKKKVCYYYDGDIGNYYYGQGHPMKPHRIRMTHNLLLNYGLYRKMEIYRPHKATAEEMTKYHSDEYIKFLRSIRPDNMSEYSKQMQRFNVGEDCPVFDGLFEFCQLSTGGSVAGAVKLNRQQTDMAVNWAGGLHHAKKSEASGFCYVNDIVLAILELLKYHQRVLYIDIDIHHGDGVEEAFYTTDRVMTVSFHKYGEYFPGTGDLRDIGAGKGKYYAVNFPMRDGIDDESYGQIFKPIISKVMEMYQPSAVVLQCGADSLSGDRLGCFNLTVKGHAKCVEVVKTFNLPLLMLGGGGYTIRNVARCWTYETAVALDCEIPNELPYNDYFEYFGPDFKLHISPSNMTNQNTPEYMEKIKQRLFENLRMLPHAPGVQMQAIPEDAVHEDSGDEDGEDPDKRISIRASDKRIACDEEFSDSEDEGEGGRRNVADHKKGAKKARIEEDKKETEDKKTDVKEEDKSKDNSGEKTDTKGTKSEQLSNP
Sequence of HDAC1 (Q13547 whole entry, species assumed): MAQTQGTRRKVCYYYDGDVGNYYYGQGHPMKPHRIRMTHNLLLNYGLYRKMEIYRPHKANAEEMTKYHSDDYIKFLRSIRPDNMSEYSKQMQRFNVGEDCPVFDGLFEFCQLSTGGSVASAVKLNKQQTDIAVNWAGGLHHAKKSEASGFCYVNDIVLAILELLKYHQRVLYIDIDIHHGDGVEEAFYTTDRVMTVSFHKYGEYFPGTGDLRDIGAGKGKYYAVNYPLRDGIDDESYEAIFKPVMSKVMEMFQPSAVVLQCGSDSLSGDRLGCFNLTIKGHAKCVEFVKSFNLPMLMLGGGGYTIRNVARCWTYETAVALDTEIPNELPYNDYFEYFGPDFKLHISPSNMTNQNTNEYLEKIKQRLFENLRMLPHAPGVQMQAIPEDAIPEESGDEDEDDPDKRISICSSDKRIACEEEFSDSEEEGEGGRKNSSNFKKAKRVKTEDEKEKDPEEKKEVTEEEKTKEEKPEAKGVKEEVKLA

Structure (SMILES) | IC50 ([1]; Table 4) [nM] | IC50 ([1]; Table 5) [nM] | IC50 ([2]; Table 4) [nM] | IC50 ([2]; Table 5) [nM] | IC50 ([4]; Table 4) [nM] | IC50 ([4]; Table 5) [nM] | other results
CN1CCS(=O)(=Nc2ccc(C(=O)Nc3cc(-c4ccc(F)cc4)ccc3N)cc2)CC1 [Compound 67] | < 500 | 30 to 300 | < 500 | < 30 | > 5000 | > 3000 | Acetyl lysine Maximum (%) [3]: 570%; Acetyl lysine Minimum effective concentration [3]: 16 nM; IC50 [5]: 300 nM; IC50 [6]: > 10000 nM; H3K 27 Acetyl lysine Maximum (%) [7]: 300%; H3K 27 Acetyl lysine Minimum effective concentration [7]: 16 nM
CNC(=O)c1ccc(-c2ccc(N)c(NC(=O)c3ccc(N=S(C)(C)=O)cc3)c2)cc1 [Compound 11] | < 500 |  | < 500 |  | > 5000 |  | 
CCS(=O)(CC)=Nc1ccc(C(=O)Nc2cc(-c3ccc(F)cc3)ccc2N)cc1 [Compound 59] |  | 30 to 300 |  | < 30 |  | > 3000 | 
[2H]c1ccc(-c2ccc(N)c(NC(=O)c3ccc(N=S(C)(C)=O)cc3)c2)cc1 [Compound 12] | < 500 |  | < 500 |  | > 5000 |  | 
CCN1CCS(=O)(=Nc2ccc(C(=O)Nc3cc(-c4ccc(F)cc4)ccc3N)cc2)CC1 [Compound 69] |  | 30 to 300 |  | < 30 |  | > 3000 | 
Nc1ccc(-c2ccc(F)s2)cc1NC(=O)c1ccc(N=S2(=O)CCC2)cc1 [Compound 92] | < 500 |  | < 500 |  | > 5000 |  | 
Nc1ccc(-c2ccc(F)s2)cc1NC(=O)c1ccc(N=S2(=O)CC3(CCC3)C2)cc1 [Compound 93] | < 500 |  | < 500 |  | > 5000 |  | 
CS(C)(=O)=Nc1ccc(C(=O)Nc2cc(-c3cccnc3)ccc2N)cc1 [Compound 15] | < 500 |  | < 500 |  | > 5000 |  | 
Nc1ccc(-c2ccc(F)s2)cc1NC(=O)c1ccc(N=S2(=O)CC3(CNC3)C2)cc1 [Compound 94] | < 500 |  | < 500 |  | > 5000 |  | 
Nc1ccc(-c2ccc(F)cc2)cc1NC(=O)c1ccc(N=S2(=O)CCC(F)(F)C2)cc1 (stereo not drawn) [Compound 65] |  | 30 to 300 |  | < 30 |  | > 3000 | 
Nc1ccc(-c2ccc(F)cc2)cc1NC(=O)c1ccc(N=S2(=O)CC3(CNC3)C2)cc1 [Compound 55] |  | 30 to 300 |  | < 30 |  | > 3000 | 
CN1CC2(C1)CS(=O)(=Nc1ccc(C(=O)Nc3cc(-c4cccs4)ccc3N)cc1)C2 [Compound 79] | < 500 |  | < 500 |  | > 5000 |  | 
Nc1ccc(-c2ccc(F)cc2)cc1NC(=O)c1ccc(N=S2(=O)CC3(CCC3)C2)cc1 [Compound 54] |  | 30 to 300 |  | < 30 |  | > 3000 | 
CN1CCS(=O)(=Nc2ccc(C(=O)Nc3cc(-c4cccs4)ccc3N)cc2)CC1 [Compound 89] | < 500 |  | < 500 |  | > 5000 |  | 
CS(C)(=O)=Nc1ccc(C(=O)Nc2cc(-c3cccs3)c(F)cc2N)cc1 [Compound 44] | < 500 |  | < 500 |  | > 5000 |  | 
Nc1ccc(-c2ccc(F)cc2)cc1NC(=O)c1ccc(N=S2(=O)CCC(F)(F)CC2)cc1 [Compound 63] |  | 30 to 300 |  | < 30 |  | > 3000 | 

Structure (SMILES) | IC50 ([1]; Table 4) [nM] | IC50 ([1]; Table 5) [nM] | IC50 ([2]; Table 4) [nM] | IC50 ([2]; Table 5) [nM] | IC50 ([4]; Table 4) [nM] | IC50 ([4]; Table 5) [nM] | other results
CS(C)(=O)=Nc1ccc(C(=O)Nc2cc(-c3ccc(C#N)cc3)ccc2N)cc1 [Compound 4] | < 500 |  | < 500 |  | > 5000 |  | 
CN1CC2(C1)CS(=O)(=Nc1ccc(C(=O)Nc3cc(-c4ccc(F)s4)ccc3N)cc1)C2 [Compound 95] | < 500 |  | < 500 |  | > 5000 |  | 
CS(C)(=O)=Nc1ccc(C(=O)Nc2cc(-c3ccccc3)ccc2N)cc1 [Compound 2] | < 500 |  | < 500 |  | > 5000 |  | 
CN1CC2(CCS(=O)(=Nc3ccc(C(=O)Nc4cc(-c5cccs5)ccc4N)cc3)CC2)C1 [Compound 91] | < 500 |  | < 500 |  | > 5000 |  | 
CS(C)(=O)=Nc1ccc(C(=O)Nc2cc(-c3ccc(C4CC4)cc3)ccc2N)cc1 [Compound 8] | 500 to 5000 |  | 500 to 5000 |  | > 5000 |  | 
CS(C)(=O)=Nc1ccc(C(=O)Nc2cc(-c3ccc(F)s3)ccc2N)cc1 [Compound 33] |  | 30 to 300 |  | < 30 |  | > 3000 | CLint scaled at 1 µM ([8]; Human liver microsomes): 8.26 mL/min/kg; Clliver ([8]; Human liver microsomes): 5.91 mL/min/kg; half-life at 1 µM ([8]; Human liver microsomes): 3.51 h; CLint scaled at 1 µM ([8]; Mouse liver microsomes): 0.45 mL/min/kg; Clliver ([8]; Mouse liver microsomes): 0.45 mL/min/kg; half-life at 1 µM ([8]; Mouse liver microsomes): 201 h
CS(C)(=O)=Nc1ccc(C(=O)Nc2cc(-c3ccc(F)cc3)ccc2O)cc1 [Compound 41] | 500 to 5000 |  | < 500 |  | > 5000 |  | 
CS(C)(=O)=Nc1ccc(C(=O)Nc2cc(-c3ccc(Cl)cc3)ccc2N)cc1 [Compound 3] | < 500 | 30 to 300 | < 500 | < 30 | > 5000 | > 3000 | CLint scaled at 1 µM ([8]; Human liver microsomes): 1.85 mL/min/kg; Clliver ([8]; Human liver microsomes): 1.70 mL/min/kg; half-life at 1 µM ([8]; Human liver microsomes): 15.7 h; CLint scaled at 1 µM ([8]; Mouse liver microsomes): 17.8 mL/min/kg; Clliver ([8]; Mouse liver microsomes): 14.87 mL/min/kg; half-life at 1 µM ([8]; Mouse liver microsomes): 5.11 h
Nc1ccc(-c2ccc(F)cc2)cc1NC(=O)c1ccc(N=S2(=O)CCN(CC3CC3)CC2)cc1 [Compound 71] | < 500 |  | < 500 |  | > 5000 |  | 
Nc1ccc(-c2ccc(F)cc2)cc1NC(=O)c1ccc(N=S2(=O)CCC2)cc1 [Compound 53] |  | 30 to 300 |  | < 30 |  | > 3000 | 
Nc1ccc(-c2ccc(F)s2)cc1NC(=O)c1ccc(N=S2(=O)CCCC2)cc1 [Compound 96] | < 500 |  | < 500 |  | > 5000 |  | 
CS(C)(=O)=Nc1ccc(C(=O)Nc2cc(-c3ccc(F)cc3)c(F)cc2N)cc1 [Compound 43] | < 500 |  | < 500 |  | > 5000 |  | 
CN1CC2(CCS(=O)(=Nc3ccc(C(=O)Nc4cc(-c5ccc(F)cc5)ccc4N)cc3)CC2)C1 [Compound 72] | < 500 | 30 to 300 | < 500 | < 30 | > 5000 | > 3000 | 
CS(C)(=O)=Nc1ccc(C(=O)Nc2cc(-c3ccccn3)ccc2N)cc1 [Compound 14] | < 500 |  | < 500 |  | > 5000 |  | 
Nc1ccc(-c2ccc(F)cc2)cc1NC(=O)c1ccc(N=S2(=O)CCCC2)cc1 [Compound 57] |  | 30 to 300 |  | < 30 |  | > 3000 | CLint scaled at 1 µM ([8]; Human liver microsomes): 7.51 mL/min/kg; Clliver ([8]; Human liver microsomes): 5.51 mL/min/kg; half-life at 1 µM ([8]; Human liver microsomes): 3.86 h; CLint scaled at 1 µM ([8]; Mouse liver microsomes): 33 mL/min/kg; Clliver ([8]; Mouse liver microsomes): 24.16 mL/min/kg; half-life at 1 µM ([8]; Mouse liver microsomes): 2.75 h
